These results are taken from US12473332B2, “Modified peptides and associated methods of use” (Advanced Technologies For Novel Therapeutics, LLC, priority 2019, dated 2025).

Where no end group is shown, it is not given here.

One series addresses AKT1 (Homo sapiens, UniProt P31749). The series is described as follows: AKT1 in vitro kinase assay, γ-32P incorporation into Ser-21 GSK-3β substrate peptide. Format: biochemical.
The nature of series [1]: trypan blue staining, live and dead cell count. Format: cell-based. As to conditions: 12 to 72 hours. The source says:
Therefore, in addition to capturing live images, cells were stained with trypan blue at different time intervals following treatment with ZaTa and counted by a light microscope using a hemocytometer.

For series [2], the target named is AKT (Homo sapiens, UniProt P31749). In words: in vitro AKT kinase assay with Ser-9 GSK-3 GST fusion protein substrate; PKAc peptide library screen. It is filed as biochemical. As to conditions: Ser-9 GSK-3 GST substrate.
AKT (Homo sapiens, UniProt P31749), sequence (P31749 whole entry, the tested form may be a part): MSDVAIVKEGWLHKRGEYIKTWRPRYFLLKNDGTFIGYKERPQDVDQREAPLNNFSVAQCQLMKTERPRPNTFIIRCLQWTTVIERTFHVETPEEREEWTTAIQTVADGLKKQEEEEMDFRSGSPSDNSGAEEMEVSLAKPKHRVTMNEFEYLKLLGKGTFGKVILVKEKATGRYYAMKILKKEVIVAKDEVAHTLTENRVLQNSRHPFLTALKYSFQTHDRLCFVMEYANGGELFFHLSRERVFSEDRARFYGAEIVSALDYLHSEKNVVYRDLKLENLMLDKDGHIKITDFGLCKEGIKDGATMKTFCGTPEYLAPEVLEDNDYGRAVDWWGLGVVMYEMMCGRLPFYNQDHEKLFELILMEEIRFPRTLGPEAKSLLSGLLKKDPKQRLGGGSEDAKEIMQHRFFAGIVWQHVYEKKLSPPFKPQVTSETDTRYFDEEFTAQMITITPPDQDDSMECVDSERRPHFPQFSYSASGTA
Series [3] relates to AKT. The series is described as follows: AKT activity in cultured neurons treated with PKA inhibitor or activator (AKT phosphorylation at Thr-308 and Ser-473). Format: cell-based. The protocol:
To evaluate the significance of the AKT-PKAc interaction, kinase inhibitors were employed. […] Thus, cultured neurons were treated with the selective PKA inhibitor, H-89, and the potent PKA activator, forskolin, and AKT activity was analyzed.

For another series, the system named is glioblastoma cells. As to conditions: literature; read-out: IC-50 on glioblastoma cells; cited from earlier work.
The subject of the next series is Neuroblastoma cells. As to conditions: literature; read-out: IC-50 on neuroblastoma cells; cited from earlier work.

AKT1, sequence (P31749 whole entry): as the sequence (P31749 whole entry, the tested form may be a part) above

Regarding “G-F-A-K-R-V-K-G-R-T-W-T-L (GFAKRVKGRTWTL; MISC_FEATURE - Peptide_SEQ ID NO:59) [Peptide 52]”, the “inhibition of AKT1 catalytic activity” value with AKT1 is reported as “not able to inhibit AKT1”. Consider AKRVKGRTWTLCGRPEY [ZaTa^T14R], for which, in series [1], the “number of dead cells” value was “a significant increase in the number of dead cells was observed”. For the compound “W-A-L-G-V-L-I-Y-E-M-A-A-G-Y (WALGVLIYEMAAGY; MISC_FEATURE - Peptide_SEQ ID NO:69) [Peptide 62]”, the “inhibitory effect on catalytic activity of AKT” value (shortened to “inhibitory effect”) with AKT [2] is on record as “significant inhibitory effects”. For the compound `O=S(=O)(NCCNC/C=C/c1ccc(Br)cc1)c1cccc2cnccc12` [Peptide H-89, H-89], the “activity of AKT (activation-dependent phosphorylation at Thr-308 and Ser-473)” value with AKT [3] is recorded as “dose-dependent increase in the activity of AKT”. Take “D-Q-Q-G-Y-I-Q-V-T-D-F-G-F-A-K (DQQGYIQVTDFGFAK; MISC_FEATURE - Peptide_SEQ ID NO:56) [Peptide 49]”: the “inhibitory effect” value in the series with AKT [2] is “significant inhibitory effects”. On to AKRVKGRTWTLCGTPER [ZaTa^Y17R], for which the “number of dead cells” value in series [1] is recorded as “a significant increase in the number of dead cells was observed”. In the case of `Cn1nnc2c(C(N)=O)ncn2c1=O` [Temodar], the IC50 was 421 to 1020 µM in the series with glioblastoma cells and 602 µM with Neuroblastoma cells. “G-V-L-I-Y-E-M-A-A-G-Y-P-P-F-F (GVLIYEMAAGYPPFF; MISC_FEATURE - Peptide_SEQ ID NO:70) [Peptide 63]”: the “inhibitory effect” value with AKT [2] is “significant inhibitory effects”.

As for AKRVKGRDWTLCGTPEY [ZaTa^T8D], in series [1], the “number of dead cells” value is recorded as “a significant increase in the number of dead cells was not seen”.

Consider “Y-E-M-A-A-G-Y-P-P-F-F-A (YEMAAGYPPFFA; MISC_FEATURE - Peptide_SEQ ID NO:71) [Peptide 64]”, for which the “inhibitory effect” value with AKT [2] was “significant inhibitory effects”. For the compound AKRVKGRTWDLCGTPEY [ZaTa^T10D], the “number of dead cells” value in series [1] was “a significant increase in the number of dead cells was not seen”.
